Measurements published in patent publication US5571799A, “(2'-5') oligoadenylate analogues useful as inhibitors of host-v5.-graft response” (Basco, Ltd., priority 1994, dated 1996).
“Also recorded” adds a separate entry of the source.

Assays:
T-suppressors = assay: Immune system of monkeys: T-suppressors, flow cytofluorografic analysis; format: in vivo, Macaque Rh. monkeys; details: for T-suppressor: single IV 25 μg/kg; for T-suppressors: single IV 50 μg/kg
Description: (§1) Immunosuppressive activity of the prototype 2'-5'A3 and two analogues (2'-5')A2 Ar-epoxy and (2'-5')A2 A^l-epoxy were investigated in monkeys. The experiments were performed on 4 year-old Macaque Rh. monkeys. The levels of the principal subpopulations of T-lymphocytes, IgA, IgG, IgM and the amount of α- and γ-interferon and interleukin II after administration (2'-5')olygoadenylate and its analogies at the concentration of 50 and 25 μg/kg of the body weight was investigated.
(§2) FLOW CYTOFLUOROGRAFIC ANALYSIS OF LYMPHOCYTE SUBSETS
(§3) Blood samples (100 μl of whole blood) were placed into a 12×17 tube. To these cells 20 μl of purified monoclonal antibodies were added with specificity for human cytotoxic/suppressor cells anti-Leu-2a (CD8), human helper/inducer anti-Leu-3a (CD4) and FITC conjugated monoclonal antibodies with specificity for natural killer cells-anti-Leu11c (CD16) (Becton Dickinson, San Jose). After 30 minutes incubation on ice, the cells were washed once and 20 μl of goat-antimouse chain phycoerythrin (Sigma P1286) conjugate were added to the tube with anti-Leu-2a and anti-Leu-3a monoclonal antibodies.
(§4) After erythrocyte lysing with FACS lysing solution (Becton Dickinson, San Jose) the cells were analyzed on FACScan flow cytometer (Becton Dickinson, San Jose) with scatter gate set on lymphocyte fraction.

[1] = test system: natural compound 2'-5'A3 in blood plasma and blood cells; assay: Duration of activity in the blood of rabbits (radioimmune and fluoroimmune detection); format: in vivo; details: 10 min after one injection, 10 μg/kg, rabbit
From the text: Duration of (2'-5')A2 Ar-epoxy Activity in the Blood of Rabbits
In order to study (2'-5')A2 Ar-epoxy pharmacodynamics, the radioimmune and fluoroimmune techniques were developed for its detection in tissue.

[2] = test system: T-lymphocytes (murine splenocytes) stimulated with Concanavalin A; assay: In vitro blast-transformation of murine lymphocytes, Con A (T-lymphocyte mitogen), [3H]-thymidine; format: cell-based, mouse (CBA); details: for DNA synthesis at [^3 H]-thymidine [incorporated counts/min.]: Con A 5 μg/ml
From the text: The immune reactions in an organism begins with the division of lymphocytes. In vitro investigation of the lymphocyte blast-transformationreaction under the influence of mitogens makes it possible to use this model system to select chemically synthesized 2'-5'A3 analogues which suppress division of lymphocytes. Using Concanavalin A and lipopolysaccharide as mitogens, the effect of analogues on the division of T- and β-lymphocytes may be investigated.
CBA mice 8-10 weeks old were used for these experiments. A suspension of mouse splenocytes were obtained by gently teasing spleens with forceps. […] Cultures were maintained in 5% CO2 at 37° C. One μCi of ^3 H-thymidine (Isotop®) was added to each well 4 hours before the end of the incubation period. Incorporation of ^3 H-thymidine into cellular DNA was determined by liquid scintillation counting using standard techniques. Oligoadenylate was added to the medium at the beginning of culturing to achieve the final concentration.
(Con A being a mitogen for T-lymphocytes and LPS being a mitogen for β-lymphocytes).

T-helpers = assay: Immune system of monkeys: T-helpers, flow cytofluorografic analysis; format: in vivo, Macaque Rh. monkeys
Description: as §1, with “The” for “Immunosuppressive activity of the prototype 2'-5'A3 and two analogues (2'-5')A2 Ar-epoxy and (2'-5')A2 A^l-epoxy were investigated in monkeys. The”
as §2, §3, §4

T-killers = assay: Immune system of monkeys: T-killers, flow cytofluorografic analysis; format: in vivo, Macaque Rh. monkeys
Description: as §1, with “The” for “Immunosuppressive activity of the prototype 2'-5'A3 and two analogues (2'-5')A2 Ar-epoxy and (2'-5')A2 A^l-epoxy were investigated in monkeys. The”
as §2, §3, §4

[3] = test system: snake venom phosphodiesterase; assay: Stability to the action of snake venom phosphodiesterase; format: in vitro ADME
Description: Determination of (2'-5')oligoadenylates and analogues stability to the action of snake venom phosphodiesterase
Upon entering an organism 2'-5'A3 and the analogues are quickly hydrolyzed to monomeric compound(s). Prior to administration of 2'-5'A3 analogues in vivo to animal, it was considered necessary to determine their stability towards snake venom phosphodiesterase in comparison to the parent 2'-5'A3.
The solution of 3 μg of the snake venom phosphodiesterase (Boehringer Mannheim cat. No. 108260) in 30 μl of 0.1 M Tris HCl buffer, containing 0.002 M MgCl2 (pH 8.78) is added to the solution of 4-5·10^-7 M trimer in 100 μl of the same buffer. The solution was left standing at 20° C. At regular intervals, 10 μl samples were taken, heated at 90° C. for 1 minute and preparative thin layer chromatography was performed on the Silufole™ plates, using a 7:1:2 mixture of isopropanol:aqueous ammonia:water.
The spot, corresponding to the initial trimer, was cut out, the substance was extracted with 2 ml of 0.5% solution of the dodecylsulfate sodium salt solution for 2 hours, and the optical density of the solution was determined at 260 nm.

[4] = single IV 25 μg/kg, day 0 (baseline)
[5] = single IV 50 μg/kg, day 0 (baseline)

Adenylyl (2'-5')adenylyl (2'-5')-9-(2,3-anhydro-β-D-ribofuranosyl) adenine disodium salt [(2'-5')A2 Ar-epoxy]
effect on T-suppressors, in words (T-suppressors; 25 and 50 μg/kg IV): suppresses the number of T-suppressor cells | T-suppressor (T-suppressors; day 0 (baseline)): 47% | T-suppressor (T-suppressors; day 1): 40% | T-suppressor (T-suppressors; day 2): 21% | T-suppressor (T-suppressors; day 4): 11% | T-suppressor (T-suppressors; day 8): 11% | T-suppressor (T-suppressors; day 12): 14% | T-suppressor (T-suppressors; day 21): 46% | T-suppressors (T-suppressors; day 0 (baseline)): 43% | T-suppressors (T-suppressors; day 1): 31% | T-suppressors (T-suppressors; day 2): 19% | T-suppressors (T-suppressors; day 4): 12% | T-suppressors (T-suppressors; day 8): 7.4% | T-suppressors (T-suppressors; day 12): 13% | T-suppressors (T-suppressors; day 21): 44% | decrease of the level of natural compounds in blood plasma [1]: 10 fold | increase of concentration of natural compounds in blood cells [1]: 10 fold | DNA synthesis at [^3 H]-thymidine [incorporated counts/min.] ([2]; 5 × 10^-6 M, control 22,296): 16,399 counts/min. | inhibition of lymphocyte blast-transformation, in words ([2]; Con A, T-lymphocytes): suppresses the T-lymphocyte division to a greater extent | DNA synthesis at [^3 H]-thymidine [incorporated counts/min.] ([2]; Table 4, 1 × 10^-5 M, control 5,428): 4,172 counts/min. | DNA synthesis at [^3 H]-thymidine [incorporated counts/min.] ([2]; Table 4, 5 × 10^-6 M, control 5,428): 1,733 counts/min. | DNA synthesis at [^3 H]-thymidine [incorporated counts/min.] ([2]; Table 4, 5 × 10^-7 M, control 5,428): 3,865 counts/min. | DNA synthesis at [^3 H]-thymidine [incorporated counts/min.] ([2]; Table 4, 5 × 10^-8 M, control 5,428): 5,383 counts/min. | DNA synthesis at [^3 H]-thymidine [incorporated counts/min.] ([2]; Table 4, 5 × 10^-9 M, control 5,428): 1,599 counts/min. | DNA synthesis at [^3 H]-thymidine [incorporated counts/min.] ([2]; Table 4, 5 × 10^-10 M, control 5,428): 777 counts/min. | DNA synthesis at [^3 H]-thymidine [incorporated counts/min.] ([2]; Table 4, 5 × 10^-11 M, control 5,428): 5,271 counts/min. | DNA synthesis at [^3 H]-thymidine [incorporated counts/min.] ([2]; Table 5, 1 × 10^-5 M, control 5,108): 2,960 counts/min. | DNA synthesis at [^3 H]-thymidine [incorporated counts/min.] ([2]; Table 5, 5 × 10^-6 M, control 5,108): 4,732 counts/min. | DNA synthesis at [^3 H]-thymidine [incorporated counts/min.] ([2]; Table 5, 5 × 10^-7 M, control 5,108): 2,237 counts/min. | DNA synthesis at [^3 H]-thymidine [incorporated counts/min.] ([2]; Table 5, 5 × 10^-8 M, control 5,108): 1,355 counts/min. | DNA synthesis at [^3 H]-thymidine [incorporated counts/min.] ([2]; Table 5, 5 × 10^-9 M, control 5,108): 6,915 counts/min. | DNA synthesis at [^3 H]-thymidine [incorporated counts/min.] ([2]; Table 5, 5 × 10^-10 M, control 5,108): 1,425 counts/min. | T-helpers (T-helpers; [4]): 16% | T-helpers (T-helpers; single IV 25 μg/kg, day 1): 20% | T-helpers (T-helpers; single IV 25 μg/kg, day 2): 10% | T-helpers (T-helpers; single IV 25 μg/kg, day 4): 4% | T-helpers (T-helpers; single IV 25 μg/kg, day 8): 5.3% | T-helpers (T-helpers; single IV 25 μg/kg, day 12): 7% | T-helpers (T-helpers; single IV 25 μg/kg, day 21): 23% | T-helpers (T-helpers; [5]): 30% | T-helpers (T-helpers; single IV 50 μg/kg, day 1): 29% | T-helpers (T-helpers; single IV 50 μg/kg, day 2): 15% | T-helpers (T-helpers; single IV 50 μg/kg, day 4): 1.2% | T-helpers (T-helpers; single IV 50 μg/kg, day 8): 5.0% | T-helpers (T-helpers; single IV 50 μg/kg, day 12): 7.0% | T-helpers (T-helpers; single IV 50 μg/kg, day 21): 30.6% | T-killers (T-killers; [4]): 9.9% | T-killers (T-killers; single IV 25 μg/kg, day 1): 12% | T-killers (T-killers; single IV 25 μg/kg, day 2): 8% | T-killers (T-killers; single IV 25 μg/kg, day 4): 4% | T-killers (T-killers; single IV 25 μg/kg, day 8): 4% | T-killers (T-killers; single IV 25 μg/kg, day 12): 4% | T-killers (T-killers; single IV 25 μg/kg, day 21): 6.4% | T-killers (T-killers; [5]): 12% | T-killers (T-killers; single IV 50 μg/kg, day 1): 9% | T-killers (T-killers; single IV 50 μg/kg, day 2): 7% | T-killers (T-killers; single IV 50 μg/kg, day 4): 1.5% | T-killers (T-killers; single IV 50 μg/kg, day 8): 4.4% | T-killers (T-killers; single IV 50 μg/kg, day 12): 9% | T-killers (T-killers; single IV 50 μg/kg, day 21): 19.3% | T 1/2 (time for optical density of initial trimer to decrease by 50%) ([3]; 20° C., 0.1 M Tris HCl, 0.002 M MgCl2, pH 8.78): 16.0 h | stability / resistance to phosphodiesterase ([3]; in words, disodium salt): significantly more resistant towards hydrolysis by phosphodiesterase; also recorded: more resistant to phosphodiesterase than (2'-5')A2 A^l-epoxy | resistance to snake venom phosphodiesterase relative to prototype 2'-5'A3 ([3]; vs 2'-5'A3): 35 fold
